Experimental data as given in US20220378739A1, “NATURAL KILLER CELL IMMUNOTHERAPY FOR THE TREATMENT OF GLIOBLASTOMA AND OTHER CANCERS” (BOARD OF REGENTS, THE UNIVERSITY OF TEXAS SYSTEM, priority 2019, published 2022).
Entries after “also recorded” stand apart in the source; their conditions may differ.

Experiments:
[1] = system: K562 targets; assay type: cell-based, human; settings: 48 hours
Experimental: (§1) NK cells were co-cultured for 5 hours with K562 or GSCs target cells at an optimized effector:target ratio of 5:1 together with CD107a PE-CF594 (BD Biosciences), monensin (BD GolgiStopTM) and BFA (Brefeldin A, Sigma Aldrich). NK cells were incubated without targets as the negative control and stimulated with PMA (50 ng/mL) and ionomycin ([…], Sigma Aldrich) as positive control. Cells were collected, washed and stained with surface antibodies (mentioned above), fixed/permeabilized (BD Biosciences) and stained with IFN-7 v450 and TNF-α Alexa700 (BD Biosciences) antibodies.
(§2) NK cell cytotoxicity was assessed using chromium (siCr) release assay. Briefly, K562 or GSCs target cells were labeled with siCr (PerkinElmer Life Sciences, Boston, Mass.) at 50 μCi/5×10^5 cells for 2 hours. ^51Cr-labeled K562/GSC targets (5×105) were incubated for 4 h with serially diluted magnetically isolated NK cells in triplicate. Supernatants were then harvested and analysed for ^51Cr content.
For studies of NK cell suppression by GSCs and human astrocytes, magnetically selected healthy NK cells were cultured in Serum-free Stem Cell Growth Medium (SCGM; CellGro/CellGenix) supplemented with 5% glutamine, 5 μM HEPES (both from GIBCO/Invitrogen), and 10% FCS (Biosera) in 96-well flat-bottomed plates (Nunc) at 100,000/100D11. NK cells were co-cultured either alone (positive control) or with GSCs or astrocytes at a 1:1 ratio for 48 hours at 37° C. before performing functional assays to assess NK cells cytotoxicity.
(§3) GSCs and purified NK cells were co-cultured for 48 hours in the presence of anti-TGFβ 123 (5 μg/ml) (R&D), HLA-ABC blocking antibody (clone W 6/32, Biolegend), CD44 blocking antibody (clone IM7, Biolegend), ILT-2 (CD85J) blocking antibody (clone HP-F1, ThermoFisher), CD155 blocking antibody (clone D171, GenTex), CD112 blocking antibody (clone TX31, Biolegend), 10 μM LY2109761, 10 μM galunisertib (LY2157299), 10 μM Cilengitide (Cayman Chemical) or 1 μM MMP-2/MMP-9 inhibitor I (Millipore). Cytotoxicity assays were then performed as described above.

[2] = system: TGF-β1 Smad⅔ signaling pathway in NK cells; assay: Phospho-Smad⅔ assay in NK cells co-cultured with GSCs; assay type: cell-based, human; settings: for p-Smad⅔ expression (MFI) in NK cells co-cultured with GSCs: healthy control NK cells + GSCs, inhibitor 10 μM
Experimental: as §3
NK cells were stained with Live/dead-aqua and CD56 ECD (Beckman Coulter) for 20 min in the dark at RT, washed with PBS fixed for 10 min in the dark. After one wash, the cells were permeabilized (Beckman Coulter kit) and stained with p-(5465/5467)-Smad2/p-(5423/5425)/Smad3-Alexa 647 mAb Phosflow antibody (BD Biosciences) for 30 minutes at room temperature. Cells incubated with 10 ng/ml recombinant TGF-β for 45 minutes in 37° C. were used as positive control.

[3] = system: GSC targets; assay: NK cell functional assay (51Cr release; CD107a, IFN-γ, TNF-α) against GSC targets after co-culture with GSCs; assay type: cell-based, human; settings: 48 hours co-culture with GSCs 1:1; inhibitor 10 μM
Experimental: as §1, §2
For studies of NK cell suppression by GSCs and human astrocytes, magnetically selected healthy NK cells were cultured in Serum-free Stem Cell Growth Medium (SCGM; CellGro/CellGenix) supplemented with 5% glutamine, 5 μM HEPES (both from GIBCO/Invitrogen), and 10% FCS (Biosera) in 96-well flat-bottomed plates (Nunc) at 100,000/100D11. […]

[4] = system: NKG2D, CD9, CD103 on TiNKs; assay: Flow cytometry of TiNKs extracted from mouse brain tumor; assay type: in vivo, mouse (NSG)
Source text: FIG. 20. […] Heat map representation of the surface markers NKG2D, CD9, CD103, PD-1 and CD69. Once the mice were sacrificed, the brain tissue was processed and TiNKs were extracted from the GBM tumor. The cells we then stained for the indicated surface markers and analyzed using flow cytometry. The expression is presented as percentage of the cells expressing each marker within the total NK cell population.
Brain tissue from the animals was collected and NK cells were isolated using a percoll (GE Healthcare) gradient fallowing protocol described by Pino et al^57. Briefly, brain tissue was dissociated using a 70 μm cell strainer (Life Science, Durham, N.C.). Cell suspension was re suspended in a 30% isotonic percoll solution and layer on top of a 70% isotonic percoll solution. Cells were centrifuged at 500 G for 30 minutes and 18 °C with no brake. 2-3 ml of the 70%-30% interface was collected in a clean tube and washed with PBS 1X. After this procedure, cells were ready for immunostaining with mouse CD45, human CD45, CD56, CD3, CD103, CD9, CD69, PD-1 and NKG2D all from Biolegend.

[5] = system: patient-derived GSCs; assay: Xenogeneic (PDX) NSG mouse model of GBM; assay type: in vivo
Experimental: To test this prediction, a PDX mouse model of patient-derived GSC was used, in which, ffLuc+ patient-derived GSCs (0.5×10^6) were stereotactically implanted on day 0 through a guide-screw into the right forebrain of NOD/SCID/IL2Rγc null mice (n=4-5 per group). After 7 days, the mice were treated intratumorally with 2.0×10^6 human NK cells every 7 days for 11 weeks (FIG. 5A) with either galunisertib to block the TGF-β signaling or cilengitide to block the integrin pathway. Galunisertib was administered five times a week by oral gavage and cilengitide three times a week by intraperitoneal injection. Animals implanted with tumor that were either untreated or received NK cells alone, galunisertib alone or cilengitide alone served as controls.
To assess the anti-tumor effect of NK cells against GSCs in vivo, a NOD/SCID IL-2R7null (NSG) human xenograft model (Jackson Laboratories, Bar Harbor, Me.) was used. Intracranial implantation of GSCs into male mice was performed as previously described^55. A total of 60 mice were used. 0.5×10^5 GSCs were implanted intracranially into the right frontal lobe of 5 week old NSG mice using a guide-screw system implanted within the skull. To increase uniformity of xenograft uptake and growth, cells were injected into 10 animals simultaneously using a multiport Microinfusion Syringe Pump (Harvard Apparatus, Holliston, Mass.). Animals were anesthetized with xylazine/ketamine during the procedure. For in vivo bioluminescent imaging, GSCs were engineered to express luciferase by lentivirus transduction. Kinetics of tumor growth was monitored using weekly bioluminescence imaging (BLI; Xenogen-IVIS 200 Imaging system; Caliper, Waltham, Mass.). Signal quantitation in photons/second (p/s) was performed by determining the photon flux rate within standardized regions of interest (ROI) using Living Image software (Caliper). […] expanded donor peripheral blood NK cells^56 were injected intracranially via the guide-screw at day 7 post tumor implantation, and then every 7 days for 11 weeks. Mice were treated with either cilengitide or galunisertib (both from MCE Med Chem Express, Monmouth Junction, NJ) in the presence or absence of intracranial NK cell injection. Cilengitide was administered intraperitoneally 3 times a week starting at day 1 (250 μg/100 μl PBS) while galunisertib was administered orally (75 mg/kg) by gavage 5 days a week starting at day 1 (see FIG. 5A). […]
Brain tissue specimens from untreated control mice, mice treated with either NK cells alone, cilengitide alone, galunisertib alone or with combination therapy of NK+ cilengitide or NK+ galunisertib were collected. […] Sections lacking tumor were also evaluated for evidence of meningoencephalitis using a Leica DM 2500 light microscope by a board-certified veterinary pathologist. […]

[6] = system: soluble TGF-β1; assay: TGF-β ELISA of NK cell/GSC co-culture supernatant; assay type: cell-based, human; settings: NK cells + GSCs, cilengitide 10 μM, 48 hours
Experimental: NK cells and GSCs were either co-cultured or cultured alone for 48 hours in serum free SCGM growth medium. After 48 hours, supernatants were collected and secretion of TGF R and MMP2/3/9 was assessed in the supernatant by TGFβ1 ELISA kit (R&D systems) or MMP2/3/9 luminex kit (eBiosciences) as per the manufacturer's protocol.

[7] = system: TiNKs / HC-NK cells rendered dysfunctional by GSCs; assay: Reversal of established NK cell dysfunction (TiNKs ex vivo; NK cell recovery assays); assay type: cell-based, human
Experimental: FIGS. 11A-11G. […] (FIG. 11A) NK cells were incubated with or without galunisertinib (10 μM) or LY2109761 (10 μM) for 48 hours. Representative zebra plots show their CD107a, IFN-γ, and TNF-α response to K562 targets. NK cells were gated on CD3-CD56+ lymphocytes. Inset numbers are the percentages of CD107a-, IFN-γ- or TNF-α-positive NK cells within the gated NK cell population. (FIGS. 11B-11C) NK cells were cultured either alone or with GSCs in a 1:1 ratio with or without LY2109761 or galunisertib for 48 hrs. Representative zebra plots and summary box plots show their CD107, IFN-γ, and TNF-α expression response to K562 (FIG. 11B) or GSC (FIG. 11C) targets. Effector:target ratio is 5:1. NK cells were defined as CD3-CD56+ lymphocytes. Inset numbers are the percentages of CD107a-, IFN-γ- or TNF-α-positive NK cells (n=7, n=4 respectively). (FIG. 11D) TiNK cells were cultured for 24 hours in media with 5 ng/ml IL-15 with or without galunisertib. Representative zebra plots and bar graph summary show their CD107, IFN-γ, and TNF-α response to K562 targets. Effector:target ratio is 5:1. NK cells were gated on CD3-CD56+ lymphocytes. Inset numbers are the percentages of CD107a-, IFN-γ- or TNF-α-positive NK cells within the indicated regions. (n=3). (FIG. 11E) TiNK cells and paired PB-NK cells from GBM patients were cultured in the presence or absence of galunisertib for 12 hours. The bar graphs summarize the mean fluorescence intensity (MFI) for their p-Smad⅔ expression. Paired t test was performed to determine statistical significance (n=3). (FIG. 11F) Specific lysis (^51Cr release assay) of K562 targets by NK cells. After 48 hours of culture alone (blue lines) or with GSCs, healthy donor NK cells were either left with GSCs (red lines), or purified and re-suspended in media for another 48 hours (black lines). NK cells were then collected and used for ^51Cr release assay (n=4). (FIG. 11G) Specific lysis (^51Cr release assay) of K562 targets by NK cells. After 48 hours of culture alone (blue lines) or with GSCs, healthy donor NK cells were either left with GSCs ([…]) or purified and cultured in SCGM media plus 5 ng/ml IL-15 with (black lines) or without galunisertib (10 μM) (gray lines) for […]. At the end of the culture period, their cytotoxicity was tested against k562 targets by ^51Cr release assay (n=4).
NK cells were cultured either with GSCs in a 1:1 ratio or alone for 48 hours. After 48 hours of co-incubation, NK cells were then either purified again by bead selection and resuspended in SCGM media or remained in culture with GSCs for an additional 48 hours and then used for ^51Cr release assay. In a second assay, after reselection, NK cells were cultured for another 5 days in SCGM in the presence of 5 ng/ml IL-15 with or without 10 μM galunisertib before use for ^51Cr release assay.

O=C(O)[C@@H](Cc1ccccc1)NS(=O)(=O)c1ccc(-c2ccccc2)cc1 [MMP 2/9 inhibitor]
NK cell function in cultures lacking GSCs ([1]; MMP 2/9 inhibitor 1 μM): did not affect NK cell function in cultures lacking GSCs | p-Smad⅔ levels in NK cells with MMP 2/9 inhibitor ([2]; NK cells with or without GSCs, inhibitor 1 μM): decreased p-Smad⅔ levels

c1ccc(-c2nn3c(c2-c2ccnc4cc(OCCN5CCOCC5)ccc24)CCC3)nc1 [LY2109761]
NK cell function (CD107a, IFN-γ, TNF-α response to K562), NK cells without GSCs ([1]; NK cells alone, inhibitor 10 μM): neither inhibitor affected NK cell function | GSC-induced NK cell dysfunction: natural cytotoxicity against GSC targets [3]: preserving the natural cytotoxicity of NK cells against K562 or GSC targets | p-Smad⅔ expression (MFI) in NK cells co-cultured with GSCs [2]: prevented GSCs from activating the TGF-β1 Smad⅔ signaling pathway in NK cells

CC(C)[C@H]1C(=O)N[C@@H](CCCN=C(N)N)C(=O)NCC(=O)N[C@@H](CC(=O)O)C(=O)N[C@H](Cc2ccccc2)C(=O)N1C [cilengitide]
surface marker expression on TiNKs harvested after sacrifice [4]: protects NK cells from TGF-β induced inhibitory phenotype in vivo | tumor bioluminescence (BLI), first experiment ([5]; NK cells intratumorally every 7 days for 11 weeks, galunisertib oral 5 times a week, cilengitide i.p. three times a week): tumor bioluminescence rapidly increased | NK-mediated GBM killing / efficacy in PDX model of GBM (summary statements) ([5]; mouse, in vivo): enhances NK-mediated GBM killing in vivo | soluble TGF-β1 levels in supernatant [6]: significantly decreased levels of soluble TGF-β1; also recorded: decreased TGF-β production | p-Smad⅔ expression (MFI) in NK cells co-cultured with GSCs [2]: significantly decreased; also recorded: diminished Smad⅔ phosphorylation

IL-15: activating cytokine
reversal of GSC-induced dysfunction of HC-NK cells ([7]; NK cells purified after 48 hours with GSCs, then IL-15 5 ng/ml with or without galunisertib 10 μM): did not reverse the dysfunction of HC-NK cells induced by GSCs | restoration of TiNK function (specific lysis of K562; CD107, IFN-γ, TNF-α) ([7]; TiNKs cultured 24 hours, galunisertib 10 μM or IL-15 5 ng/ml): failed to inactivate the TGF-β1 Smad⅔ signaling pathway and restore NK cell dysfunction | TGF-β1 Smad⅔ signaling in TiNKs ([7]; TiNKs from GBM patients cultured ex vivo, galunisertib 12 hours or IL-15): failed to inactivate the TGF-β1 Smad⅔ signaling pathway
